Measured values reported in patent publication US20120065265A1, “ALPHA-2-DELTA LIGANDS FOR NON-RESTORATIVE SLEEP” (Pfizer Inc., priority 2006, published 2012).

Test system: subjects with non-restorative sleep (NRS)
Assay: Randomized, double-blind, placebo- and active-controlled 4-way crossover study in an NRS population: efficacy
Type: in vivo, human
Settings: for RSQ-W Total Score, comparison with placebo: one-sided alpha 0.05; for RSQ-W Total Score, LS Mean (primary endpoint): po, 336 h
Procedure: STUDY DESIGN. […] Subjects were subsequently crossed over 3 times to receive the remaining treatments, each for 2 weeks followed by a 1—week washout period. […] Each treatment was administered at least 2 hours after a meal. DIAGNOSIS AND MAIN CRITERIA FOR INCLUSION. Subjects selected for the study were male and/or nonpregnant, nonlactating females between the ages of 18-64 years, inclusive, who regularly (≧3 times/week) awoke un-restored or un-refreshed for at least the previous 3 months, causing significant distress or impairment in social, occupational, or other important areas of functioning during the daytime.
EFFICACY & SAFETY EVALUATIONS. The primary endpoint in this study was the Restorative Sleep Questionnaire—Weekly (RSQ-W) Total Score at the end of each 2-week treatment period. The RSQ-W, below, is a patient-reported outcome measure of morning refreshment over the past week in which larger values of the total score correspond to greater refreshment. All remaining efficacy/outcomes endpoints were considered secondary. Safety data, including adverse event information, clinical laboratory values, physical examination, vital signs, and electrocardiograms (ECGs) were collected during the study.
STATISTICAL METHODS. The Full Analysis Set was used in the analyses of all efficacy/outcome endpoints. […] The Per-Protocol Analysis Set was used for sensitivity analyses of certain efficacy/outcome endpoints as appropriate. […] Protocol deviations included the major inclusion/exclusion criteria assessed prior to randomization and major protocol deviations or violations assessed after randomization. […] The Safety Analysis Set was used in the analyses of the safety data and consisted of all randomized subjects who took any study medication.
Each comparison was done at the nominal alpha=0.05 level (one-sided), recognizing that the probability of committing at least one Type I error could be greater than 0.05 but no more than 0.15.
MODEL-BASED SUMMARY. The primary endpoint in this study was the RSQ-W Total Score at the end of each 2-week treatment period. This endpoint was analyzed using a linear model including sequence, period, and treatment as fixed factors, and subject within sequence and within-subject error as random factors. First-order carryover effects were explored and tested at the 10% nominal level of significance. Pair-wise comparisons were made based on the final linear model. The point estimates and 90% confidence intervals (Cis) for the placebo-adjusted treatment effects were constructed using the least squares (LS) means and appropriate standard errors.
DESCRIPTIVE SUMMARY. For each item and Total Score of the RSQ-W, descriptive statistics were provided by treatment and visit.
For secondary/exploratory purposes, certain secondary efficacy endpoints were analyzed with model-based statistical procedures. […] All comparisons are considered secondary/exploratory, and each was done at the nominal alpha=0.05 level (one-sided). No multiple comparison adjustment was made. All secondary efficacy endpoints were summarized descriptively. For secondary/exploratory purposes, appropriate model-based statistical procedures similar to those for the primary endpoint were used to analyze the following scales and subscales: • Restorative Sleep Questionnaire—Daily (RSQ-D, below): weekly averages of Total Score; • Daytime Consequences of Sleep Questionnaire (DCSQ): Total Score; • Multidimensional Assessment of Fatigue (MAF): Global Fatigue Index, Impact Subscale; • Subjective Sleep Questionnaire (SSQ): Sleep Quality; • Sheehan Disability Scale (SDS): Total Score; • SF-36v2: Mental Component Summary, Physical Component Summary, Vitality Subscale; • Clinical Global Impression of Change (CGIC): Status Score; and • Patient Global Impression of Change (PGIC): Status Score.

[1] = COMPOUND A doses (25 mg and 50 mg)

Structure (SMILES)	RSQ-D Total Score at Week 2 (COMPOUND A 25 mg)	RSQ-W Total Score, comparison with placebo (COMPOUND A 25 mg)	Evening Functioning Scale (COMPOUND A dose groups, similar level of functioning as with zolpidem)	MAF Impact Subscale score at Week 2, comparison with placebo [1]	RSQ-D Total Score at Week 2, comparison with placebo [1]	RSQ-W Total Score, LS Mean (primary endpoint) (25 mg)	RSQ-W Total Score, LS Mean (primary endpoint) (50 mg)	Treatment effect relative to placebo on the primary endpoint, the RSQ-W (conclusion) (subjects with non-restorative sleep, no dose stated)	RSQ-W Total Score, comparison with placebo (zolpidem 10 mg)
C[C@H]1CC(CN)(CC(=O)O)C[C@@H]1C [COMPOUND A, (3S,4S)-(1-aminomethyl-3,4-dimethyl-cyclopentyl)-acetic acid]	61.5	statistically significantly different from placebo	better functioning than while taking placebo	not statistically significantly different from placebo	no statistically significant differences from placebo	63.6	62.5	positive treatment effect relative to placebo	
Cc1ccc(-c2nc3ccc(C)cn3c2CC(=O)N(C)C)cc1 [zolpidem, reference compound]									not statistically significantly different from placebo
